From patent US20040002444A1, “Polyphosphate-water soluble collagen complexes and process for preparation thereof” (Toshikazu SHIBA, priority 2002, published 2004)

Legend:
[1] = tested on: alveolar bone of rats (artificial periodontal pockets); test: Regeneration of the periodontal tissue in rats, influence of polyphosphate chain length (Example 4); type: in vivo, Wister male rats; conditions: measured at 15 days after operation; for area of the regenerated alveolar bone: approx. 0.1 ml injected into gingival crevices once a day for 14 days
Description: Next, an experiment of the regeneration of the periodontal tissue in rats was performed using the 3 prepared types of polyphosphate-collagen complexes. In a manner similar to Example 3, Wister male rats (8 weeks old) were anesthetized. Then, using a ½ round bar, approximately 2 mm portions were removed from the buccal alveolar bone crest of the mandibular first and second molars, and artificial periodontal pockets (gingival crevices) were formed. In the treated group, approximately 0.1 ml of either one type of the above polyphosphate-collagen complexes was injected using a syringe into the thus formed gingival crevices. The treated groups were: treated group 1 that was treated with the polyphosphate-collagen complex containing polyphosphates having an average chain length of 15; treated group 2 that was treated with the polyphosphate-collagen complex containing polyphosphates having an average chain length of 35; and treated group 3 that was treated with the polyphosphate-collagen complex containing polyphosphates having an average chain length of 75. The comparison groups were: comparison group 1 that was treated only with collagen and comparison group 2 that was treated with a mixed solution of a sodium phosphate buffer and collagen. Injection (approximately 0.1 ml) into the gingival crevices of each group was performed similarly to that for the treated groups. For all the groups, 3 rats were used per group. In addition, the injection was performed once a day and everyday from the day following the operation to prepare the gingival crevice, and was continued for 14 days.
After the above treatment, at 15 days after the operation to prepare the gingival crevice, tissue sections (samples) were prepared in a manner similar to that in Example 3 from the rats of each group, and then the area of the formed alveolar bone was measured. The areas of the regenerated alveolar bones as measured for rat individuals included in 3 treated groups and 2 comparison groups are as shown in Table 1.

[2] = tested on: alveolar bone of rats (artificial periodontal pockets); test: Regeneration of the periodontal tissue in rats (Example 3); type: in vivo, Wister male rats; conditions: approx. 0.1 ml injected into gingival crevices everyday, up to 3 weeks; light microscope
Description: Next, to confirm the effect of the prepared polyphosphate-collagen complex in regenerating the periodontal tissue, an experiment for the regeneration of the periodontal tissue was performed using rats. Wister male rats (8 weeks old; 18 rats in total) were anesthetized. Then, using a ½ round bar, approximately 2 mm portions were removed from the buccal alveolar bone crest of the mandibular first and second molars, and artificial periodontal pockets (gingival crevices) were formed. In the treated group (9 rats), approximately 0.1 ml of the polyphosphate-collagen complexes prepared in Example 2 was injected using a syringe into the thus formed gingival crevices. In the comparison group (9 rats), only the collagen was injected. The injection procedure was performed everyday from the day following the operation to prepare the gingival crevice, and continued for 3 weeks at the longest.
The rats treated for a certain period were euthanized by inhalation anesthesia (enflurane), and the tissues were fixed by perfusion fixation. Perfusion fixation was performed by letting 300 ml of physiological saline and then 10% neutral buffered formalin solution (pH 7.4, 500 ml) to flow through the blood vessel. […] In addition, the area of the regenerated alveolar bone was measured as the area of bone formation by calculating the sum of the bone areas in the sections with image processing.

collagen [Comparison group 1]
area of the regenerated alveolar bone ([1]; Individual 1): 0.5422 mm^2 | area of the regenerated alveolar bone ([1]; Individual 2): 0.5909 mm^2 | area of the regenerated alveolar bone ([1]; Individual 3): 0.6569 mm^2 | area of the regenerated alveolar bone, Average ([1]; average of 3 rats per group, approx. 0.1 ml injected once a day for 14 days): 0.5967 mm^2 | staining of the tissues: regeneration of alveolar bone (FIG. 2) [2]: no increase was observed in the alveolar bone
